Results published in patent US20240261422A1, “ANTHRACYCLINE ANTIBODY CONJUGATES” (SEAGEN INC., priority 2021, published 2024).

Columns and labels:
[1] = tested on: DEL/BVR anaplastic large cell lymphoma xenograft; experiment: DEL/BVR MDR+, CD30+ anaplastic large cell lymphoma xenograft model; format: in vivo, SCID mice; details: cAC10 S239C ADCs, average DAR 2; 3 mg/kg single dose i.p.
Description: (§1) All experiments were conducted in concordance with the Animal Care and Use Committee in a facility fully accredited by the Association for Assessment and Accreditation of Laboratory Animal Care. Efficacy experiments were conducted using the L540cy Hodgkin's lymphoma and DEL/BVR anaplastic large cell lymphoma xenograft models (Mol. Cancer Ther., 2018, 17(8), 1752-1760). Tumor cells, as a cell suspension, were implanted subcutaneously in immune-compromised SCID female mice. Upon tumor engraftment, the mice were randomized into study groups when the average tumor volume reached about 100 mm^3. The ADCs were dosed once via intraperitoneal injection. Tumor volume as a function of time was determined using the formula (L×W2)/2. Animals were euthanized when tumor volumes reached 1000 mm^3.
Anti-CD30 conjugates bearing PNU drug-linkers 29, 18, and 14 were further evaluated in a DEL/BVR MDR+, CD30+ anaplastic large cell lymphoma xenograft model. cAC10 antibody with the S239C mutation is conjugated to the PNU drug linkers with an average DAR of 2 to minimize the effects of ADC pharmacokinetics. Tumor-bearing mice were administered a 3 mg/kg single dose intraperitoneally (i.p.) of test article once the average tumor volume reached 100 mm^3 (typically on day 4). […] However, the conjugate comprising PNU linker 29 appeared to be non-efficacious, and only provided minimal tumor growth delay (FIG. 2). Untreated mice were used as negative controls.

786-O, MDR + RCC = experiment: In vitro growth inhibition (CellTiter-Glo, 96 h), 786-O; format: cell-based; details: cOKT9 ADCs, average DAR 8, 96 h
Description: (§2) Cell culture of cell lines as listed in Table 2-4 in log-phase growth were seeded in 96-well plates and grown for 24 h in cell culture media containing 150 μL RPMI 1640 supplemented with 20% FBS (see Mol. Cancer Ther., 2016, 15(5), 938-945 and Mol. Cancer Ther., 2018, 17(8), 1752-1760). Serial dilutions of free drugs or antibody-drug conjugates (final concentration between 0.004 nM and 1 μM) in cell culture media were prepared at 4× working concentrations; 50 μL of each dilution was added to the 96-well plates. Following addition of the drug or ADC, the cells were incubated with test articles (free drugs or ADCs) for 4 d at 37° C. After 96 h, growth inhibition was assessed by CellTiter-Glo® (Promega, Madison, WI) and luminescence was measured on a plate reader (brand, model).
(§3) Cells were treated for 96 hours with anthracycline analogues listed in Table 2, and then assessed for viability as described in the procedures as described above. […] ND denotes value not determined with that assay for the specified compound.
(§4) ADCs were prepared by full reduction of interchain disulfides to reveal 8-conjugatable cysteines/antibody, and subsequent alkylation with the maleimide-containing drug-linkers (Compounds 14, 18, 21, 24, 29, 32, 33, 34, and 48) according to the procedures described in Mol. Cancer Ther. 2018, 17(8). 1752-1760. Conjugates of antibody cOKT9 were prepared with anthracycline linkers. Cancer cell lines were treated with cOKT9 ADCs (average DAR of 8:1) for 96 h and then assessed for viability. […] ND denotes value not determined with that assay for the specified compound.

Ramos, CD30 − NHL = experiment: In vitro growth inhibition (CellTiter-Glo, 96 h), Ramos; format: cell-based; details: cAC10 (anti-CD30) ADCs, average DAR 4
Description: as §2
(§5) Anti-CD30 ADCs comprising cAC10 antibody conjugated to drug-linkers 24, 32, 29, 18, 14, and 48 with an average DAR of 4 were prepared for evaluation on a CD30-expressing lymphoma cell line panel. […] Anti-CD30 conjugates bearing the PNU linkers 24, 32, 29, 18, and 14 were active on L540cy, DEL, and Karpas299 lymphoma cell lines, and conjugate 48 was active on L540cy and DEL cell lines, with IC50s ranging from 0.2-4 ng/mL.

L428, MDR + HL = experiment: In vitro growth inhibition (CellTiter-Glo, 96 h), L428; format: cell-based; details: cAC10 (anti-CD30) ADCs, average DAR 4
Description: as §2, §5

DEL, ALCL = experiment: In vitro growth inhibition (CellTiter-Glo, 96 h), DEL; format: cell-based; details: cAC10 (anti-CD30) ADCs, average DAR 4
Description: as §2, §5

BxPC3, PancCa = experiment: In vitro growth inhibition (CellTiter-Glo, 96 h), BxPC3; format: cell-based; details: cOKT9 ADCs, average DAR 8, 96 h
Description: as §2, §3, §4

HL60, AML = experiment: In vitro growth inhibition (CellTiter-Glo, 96 h), HL60; format: cell-based; details: cOKT9 ADCs, average DAR 8, 96 h
Description: as §2, §3, §4

L540cy, HL = experiment: In vitro growth inhibition (CellTiter-Glo, 96 h), L540cy; format: cell-based
Description: as §2, §3, §4, §5

Karpas299, ALCL = experiment: In vitro growth inhibition (CellTiter-Glo, 96 h), Karpas299; format: cell-based; details: cAC10 (anti-CD30) ADCs, average DAR 4
Description: as §2, §5

[2] = tested on: L540cy, 786-O, BxPC3, HL60, HL60/RV; details: for IC50s of cOKT9 conjugates: 24 h
[3] = tested on: L540cy Hodgkin's lymphoma xenograft; experiment: L540cy CD30+ Hodgkin lymphoma xenograft model; format: in vivo, SCID mice; details: cAC10 S239C ADCs, average DAR 2; single dose i.p. at about 100 mm^3
Description: as §1
Anti-CD30 conjugates bearing PNU drug-linkers 29, 18, and 14 were evaluated in a CD30-expressing xenograft model as described above. cAC10 antibody with the S239C mutation is conjugated to the PNU drug linkers with an average DAR of 2 to minimize the effects of ADC pharmacokinetics. Tumor-bearing mice were administered a single dose intraperitoneally (i.p.) of test article once the average tumor volume reached 100 mm^3 (typically on day 8). Untreated mice were used as negative controls.

HL60/RV, MDR + AML = experiment: In vitro growth inhibition (CellTiter-Glo, 96 h), HL60/RV; format: cell-based; details: cOKT9 ADCs, average DAR 8, 96 h
Description: as §2, §3, §4

[4] = tested on: CD30-expressing lymphoma cell line panel; format: cell-based; details: cAC10 ADC DAR 4
Description: as §2, §5

[5] = cAC10 (anti-CD30) ADCs, average DAR 4
[6] = cOKT9 ADCs, average DAR 8, 96 h

Compound: COc1cccc2c1C(=O)c1c(O)c3c(c(O)c1C2=O)C[C@@](O)(C(=O)NCCNC(=O)CNC(=O)CNC(=O)CNC(=O)CCN1C(=O)C=CC1=O)C[C@@H]3O[C@H]1C[C@H]2[C@H](O[C@@H]3[C@@H](OC)OCCN32)[C@H](C)O1 [Compound 18, (2S,4S)—N-(15-(2,5-dioxo-2,5-dihydro-1H-pyrrol-1-yl)-4,7,10,13-tetraoxo-3,6,9,12-tetraazapentadecyl)-2,5,12-trihydroxy-7-methoxy-4-(((1S,3R,4aS,9S,9aR,10aS)-9-methoxy-1-methyloctahydro-1H-pyrano[4′,3′:4,5]oxazolo[2,3-c][1,4]oxazin-3-yl)oxy)-6,11-dioxo-1,2,3,4,6,11-hexahydrotetracene-2-carboxamide]
- antitumor activity, DEL/BVR xenograft (FIG. 2) [1]: efficacious in suppressing tumor growth
- IC50 (ng/mL) 786-O, MDR + RCC (786-O, MDR + RCC): A (IC50<10 ng/mL)
- IC50 (ng/mL) Ramos, CD30 − NHL (Ramos, CD30 − NHL): D (100 ng/mL≤IC50<500 ng/mL)
- IC50 (ng/mL) L428, MDR + HL (L428, MDR + HL): D (100 ng/mL≤IC50<500 ng/mL)
- IC50 (ng/mL) DEL, ALCL (DEL, ALCL): A (IC50<1 ng/mL)
- IC50 (ng/mL) BxPC3, PancCa (BxPC3, PancCa): A (IC50<10 ng/mL)
- IC50 (ng/mL) HL60, AML (HL60, AML): B (10 ng/mL≤IC50<100 ng/mL)
- IC50 (ng/mL) L540cy, HL (L540cy, HL; [5]): B (1 ng/mL≤IC50<10 ng/mL)
- IC50 (ng/mL) L540cy, HL (L540cy, HL; [6]): A (IC50<10 ng/mL)
- IC50 (ng/mL) Karpas299, ALCL (Karpas299, ALCL): A (IC50<1 ng/mL)
- IC50s of cOKT9 conjugates [2]: 1 to 150 ng/mL
- antitumor activity, L540cy xenograft (FIG. 1) [3]: active with a majority of animals in a complete regression
- IC50 (ng/mL) HL60/RV, MDR + AML (HL60/RV, MDR + AML): D (IC50≥1000 ng/mL)

Compound: COc1cccc2c1C(=O)c1c(O)c3c(c(O)c1C2=O)C[C@@](O)(C(=O)NCCNC(=O)CNC(=O)CNC(=O)CNC(=O)OCc1ccc(NC(=O)[C@H](C)NC(=O)[C@@H](NC(=O)CCN2C(=O)C=CC2=O)C(C)C)cc1)C[C@@H]3O[C@H]1C[C@H]2[C@H](O[C@@H]3[C@@H](OC)OCCN32)[C@H](C)O1 [Compound 29, 4-((S)-2-((S)-2-(3-(2,5-dioxo-2,5-dihydro-1H-pyrrol-1-yl)propanamido)-3-methylbutanamido)propanamido)benzyl (1,6,9,12-tetraoxo-1-((2S,4S)-2,5,12-trihydroxy-7-methoxy-4-(((1S,3R,4aS,9S,9aR,10aS)-9-methoxy-1-methyloctahydro-1H-pyrano[4′,3′:4,5]oxazolo[2,3-c][1,4]oxazin-3-yl)oxy)-6,11-dioxo-1,2,3,4,6,11-hexahydrotetracen-2-yl)-2,5,8,11-tetraazatridecan-13-yl)carbamate]
- antitumor activity, DEL/BVR xenograft (FIG. 2) [1]: non-efficacious
- IC50 (ng/mL) 786-O, MDR + RCC (786-O, MDR + RCC): B (10 ng/mL≤IC50<100 ng/mL)
- IC50 (ng/mL) Ramos, CD30 − NHL (Ramos, CD30 − NHL): E (IC50≥500 ng/mL)
- IC50 (ng/mL) L428, MDR + HL (L428, MDR + HL): E (IC50≥500 ng/mL)
- IC50 (ng/mL) DEL, ALCL (DEL, ALCL): A (IC50<1 ng/mL)
- IC50 (ng/mL) BxPC3, PancCa (BxPC3, PancCa): A (IC50<10 ng/mL)
- IC50 (ng/mL) HL60, AML (HL60, AML): B (10 ng/mL≤IC50<100 ng/mL)
- IC50 (ng/mL) L540cy, HL (L540cy, HL; [5]): B (1 ng/mL≤IC50<10 ng/mL)
- IC50 (ng/mL) L540cy, HL (L540cy, HL; [6]): A (IC50<10 ng/mL)
- IC50 (ng/mL) Karpas299, ALCL (Karpas299, ALCL): A (IC50<1 ng/mL)
- IC50s of cOKT9 conjugates [2]: 1 to 150 ng/mL
- antitumor activity, L540cy xenograft (FIG. 1) [3]: active with a majority of animals in a complete regression
- IC50 (ng/mL) HL60/RV, MDR + AML (HL60/RV, MDR + AML): D (IC50≥1000 ng/mL)

Compound: COc1cccc2c1C(=O)c1c(O)c3c(c(O)c1C2=O)C[C@@](O)(C(=O)NCCNC(=O)CNC(=O)CNC(=O)CNC(=O)CCN1C(=O)C=CC1=O)C[C@@H]3O[C@H]1C[C@H](N2CCO[C@H](OC)C2)[C@H](O)[C@H](C)O1 [Compound 33, (2S,4S)—N-(15-(2,5-dioxo-2,5-dihydro-1H-pyrrol-1-yl)-4,7,10,13-tetraoxo-3,6,9,12-tetraazapentadecyl)-2,5,12-trihydroxy-4-(((2R,4S,5S,6S)-5-hydroxy-4-((S)-2-methoxymorpholino)-6-methyltetrahydro-2H-pyran-2-yl)oxy)-7-methoxy-6,11-dioxo-1,2,3,4,6,11-hexahydrotetracene-2-carboxamide]
- IC50 (ng/mL) 786-O, MDR + RCC (786-O, MDR + RCC): D (IC50≥1000 ng/mL)
- IC50 values of anti-CD30 conjugate, highest dose tested [4]: > 20,000 ng/ml
- IC50 (ng/mL) BxPC3, PancCa (BxPC3, PancCa): D (IC50≥1000 ng/mL)
- IC50 (ng/mL) HL60, AML (HL60, AML): D (IC50≥1000 ng/mL)
- IC50 (ng/mL) L540cy, HL (L540cy, HL; [6]): D (IC50≥1000 ng/mL)
- activity of cOKT9 conjugates across the panel of cancer cell lines ([2]; cOKT9 ADCs DAR 8, result in words): inactive
- IC50 (ng/mL) HL60/RV, MDR + AML (HL60/RV, MDR + AML): D (IC50≥1000 ng/mL)
